Measured values reported in US6593342B1, “Pharmaceutical compositions comprising 2-quinolones” (Laboratoire L. Lafon, priority 1998, dated 2003).

Tests used:
Assay type in all cases: cell-based
Details in all cases: Homo sapiens, 10^−5 M, 72 hours, control = 100%, mean ± SEM, read-out: average optical density (MTT), percentage relative to control
[1] = tested on: PC-3; assay: MTT test, PC-3
Procedure: (§1) The influence of the compounds of formulae (I) and (Ia) on non-clonogenic cells was evaluated with the aid of the MTT calorimetric test.
(§2) The principle of the MTT test is based on the mitochondrial reduction, by the metabolically active live cells, of the yellow-colored product MTT (3-(4,5-dimethylthiazol-2-yl)-2,5-diphenyltetrazolium bromide) to a blue-colored product, formazan. The amount of formazan thus obtained is directly proportional to the amount of live cells present in the culture well(s). This amount of formazan is measured by spectrophotometry.
(§3) The cell lines are maintained as a monolayer culture at 37° C. in stoppered culture dishes containing MEM 25 MM HEPES (Minimum Essential Medium) base medium. This medium is suited to the growth of a range of various mammalian diploid or primary cells. This medium is then supplemented with:
(§4) an amount of 5% of FCS (Foetal Calf Serum) decomplemented at 56° C. for 1 hour,
(§5) 0.6 mg/ml of L-glutamine,
(§6) 200 μg/ml of streptomycin,
(§7) The 12 human cancer cell lines which were used were obtained from the American Type Culture Collection (ATCC, Rockville, Md., USA). These 12 cell lines are:
PC-3 (code ATCC: CRL-1435) which is a prostate cancer.
(§8) Experimentally: 100 μl of a cell suspension containing 20 000 to 50 000 (depending on the cell type used) cells/ml of culture medium are inoculated in 96-well flat-bottomed multi-well plates and are incubated at 37° C., under an atmosphere comprising 5% CO2 and 70% humidity. After incubation for 24 hours, the culture medium is replaced with 100 μl of fresh medium containing either the various test compounds at concentrations ranging from 10^−5 to 10^−10 M or the solvent used to dissolve the test products (control condition). After incubation for 72 hours under the above conditions, the culture medium is replaced with 100 μl of a yellowish solution of MTT dissolved at a rate of 1 mg/ml in RPMI 1640. The microplates are reincubated for 3 hours at 37° C. and are then centrifuged for 10 minutes at 400×g. The yellowish solution of MTT is removed and the blue formazan crystals formed in the cell are dissolved in 100 μl of DMSO. The microplates are then shaken for 5 minutes. The intensity of the resulting blue coloration, and thus of the conversion of the yellow product MTT into blue formazan by the cells that are still alive at the end of the experiment, is quantified by spectrophotometry using a Dynatech Immunoassay System machine at wavelengths of 570 nm and 630 nm corresponding, respectively, to the maximum absorption wavelengths of formazan and to the background noise. Software incorporated in the spectrophotometer calculates the average optical density values and the standard deviation (SD) and standard error of mean (SEM) values.
(§9) By way of example, the results of the average optical density, expressed as a percentage relative to the average optical density measured under the control condition (set equal to 100%), obtained at a concentration of 10^−5 M on the 12 abovementioned tumor cell lines are given in Table II.

[2] = tested on: SW1088; assay: MTT test, SW1088
Procedure: as §1, §2, §3, §4, §5, §6, §7
SW1088 (code ATCC: HTB-12) which is an astrocytoma,
as §8, §9

[3] = tested on: A-427; assay: MTT test, A-427
Procedure: as §1, §2, §3, §4, §5, §6, §7
A549 (code ATCC: CCL-185) and A-427 (code ATCC: HTB-53) which are two non-small-cell lung cancers,
as §8, §9

| Compound | viability at 10 µM [1] | viability at 10 µM [2] | viability at 10 µM [3] |
| --- | --- | --- | --- |
| COc1ccc(-c2cc3c(OC)cc(OC)cc3[nH]c2=O)cc1 [CRL8246, 5,7-Dimethoxy-3-(4-methoxyphenyl)-1,2-dihydro-2-quinolinone] | 122 ± 1.7% | 108 ± 1.1% | 101 ± 0.9% |
| COc1ccc(-c2cc3c(OC)cc(OC)cc3n(CCC#N)c2=O)cc1 [CRL8247, 3-[5,7-Dimethoxy-3-(4-methoxyphenyl)-2-oxo-1,2-dihydro-1-quinolinyl]propanenitrile] | 70.5 ± 4.6% | 85.8 ± 3.6% | 57 ± 1.5% |
| COc1ccc(-c2cc3c(OC)cc(OC)cc3n(CCc3nnn[nH]3)c2=O)cc1 [CRL8256, 1-[2-(1H-1,2,3,4-Tetrazol-5-yl)ethyl]-5,7-dimethoxy-3-(4-methoxyphenyl)-1,2-dihydro-2-quinolinone] | 86 ± 2.3% | 72.1 ± 3.3% | 81.1 ± 2.9% |
| CCN(CC)C(=O)CCn1c(=O)c(-c2ccc(OC)cc2)cc2c(OC)cc(OC)cc21 [CRL8283, N,N-Diethyl-3-[5,7-dimethoxy-3-(4-methoxy-phenyl)-2-oxo-1,2-dihydro-1-quinolinyl]propanamide] | 92.4 ± 1.7% | 84.7 ± 3.1% | 73.1 ± 1.7% |
| CCN(CC)C(=O)Cn1c(=O)c(-c2ccc(OC)cc2)cc2c(OC)cc(OC)cc21 [CRL8315, N,N-Diethyl-2-[5,7-dimethoxy-3-(4-methoxy-phenyl)-2-oxo-1,2-dihydro-1-quinolinyl]acetamide] | 93.6 ± 3% | 89.1 ± 0.6% | 92.6 ± 2.1% |
| COc1ccc(-c2cc3c(OC)cc(OC)cc3n(CCN(C)C)c2=O)cc1 [CRL8316, 1-[2-(Dimethylamino)ethyl]-5,7-dimethoxy-3-(4-methoxyphenyl)-1,2-dihydro-2-quinolinone] | 84.8 ± 2.3% | 107 ± 2% | 79.1 ± 4.8% |
